Assay results reported in patent publication US10815230B2, “Casein kinase 1 delta inhibitor” (ELECTROPHORETICS LIMITED, priority 2015, dated 2020).

Assays:
Assay in all cases: KINOMEscan binding assay
Conditions in all cases: read-out: % Ctrl @ 10000 nM
[1] = target: ABL1 (H396P) non-phosphorylated (Homo sapiens, UniProt P00519, H396P)
[2] = target: ABL1 (Q252H) non-phosphorylated (Homo sapiens, UniProt P00519, Q252H)
[3] = target: ABL1 (Q252H) phosphorylated (Homo sapiens, UniProt P00519, Q252H)
ABL1 non-phosphorylated = ABL1 non-phosphorylated (Homo sapiens, UniProt P00519)
AKT1 = AKT1 (Homo sapiens, UniProt P31749)
AKT2 = AKT2 (Homo sapiens, UniProt P31751)
Chain of AKT2 (P31751 whole entry): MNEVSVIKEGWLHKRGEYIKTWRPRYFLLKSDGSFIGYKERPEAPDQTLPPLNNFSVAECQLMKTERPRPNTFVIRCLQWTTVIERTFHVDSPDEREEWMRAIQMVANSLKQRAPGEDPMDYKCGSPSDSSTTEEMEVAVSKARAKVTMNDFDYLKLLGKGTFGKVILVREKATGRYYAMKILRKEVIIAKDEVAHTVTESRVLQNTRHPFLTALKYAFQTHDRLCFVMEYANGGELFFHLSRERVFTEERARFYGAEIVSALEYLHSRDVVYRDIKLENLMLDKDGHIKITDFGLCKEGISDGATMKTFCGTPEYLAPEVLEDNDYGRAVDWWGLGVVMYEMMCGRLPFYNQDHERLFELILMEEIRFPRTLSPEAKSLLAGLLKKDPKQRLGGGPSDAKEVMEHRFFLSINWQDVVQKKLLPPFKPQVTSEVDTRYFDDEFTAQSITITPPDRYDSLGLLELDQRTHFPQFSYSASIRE

AKT3 = AKT3 (Homo sapiens, UniProt Q9Y243)
BMPR1B = BMPR1B (Homo sapiens, UniProt O00238)
CAMK1G = CAMK1G (Homo sapiens, UniProt Q96NX5)
CDC2L5 = CDC2L5 (Homo sapiens, UniProt Q14004)
CLK4 = CLK4 (Homo sapiens, UniProt Q9HAZ1)
CSK = CSK (Homo sapiens, UniProt P41240)
Chain of CSK (P41240 whole entry): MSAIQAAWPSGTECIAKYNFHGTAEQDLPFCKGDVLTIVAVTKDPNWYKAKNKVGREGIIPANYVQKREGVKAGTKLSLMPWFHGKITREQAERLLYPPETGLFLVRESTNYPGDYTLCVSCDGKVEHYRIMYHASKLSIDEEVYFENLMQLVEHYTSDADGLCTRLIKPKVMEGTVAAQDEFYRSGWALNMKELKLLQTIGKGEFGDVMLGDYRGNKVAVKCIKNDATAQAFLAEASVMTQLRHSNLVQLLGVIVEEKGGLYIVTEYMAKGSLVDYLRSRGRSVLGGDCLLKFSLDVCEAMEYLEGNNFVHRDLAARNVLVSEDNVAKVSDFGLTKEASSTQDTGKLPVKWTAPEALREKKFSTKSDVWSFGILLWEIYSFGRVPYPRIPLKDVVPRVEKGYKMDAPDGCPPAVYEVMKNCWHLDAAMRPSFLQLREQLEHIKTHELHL

DCAMKL3 = DCAMKL3 (Homo sapiens, UniProt Q9C098)
Chain of DCAMKL3 (Q9C098 whole entry): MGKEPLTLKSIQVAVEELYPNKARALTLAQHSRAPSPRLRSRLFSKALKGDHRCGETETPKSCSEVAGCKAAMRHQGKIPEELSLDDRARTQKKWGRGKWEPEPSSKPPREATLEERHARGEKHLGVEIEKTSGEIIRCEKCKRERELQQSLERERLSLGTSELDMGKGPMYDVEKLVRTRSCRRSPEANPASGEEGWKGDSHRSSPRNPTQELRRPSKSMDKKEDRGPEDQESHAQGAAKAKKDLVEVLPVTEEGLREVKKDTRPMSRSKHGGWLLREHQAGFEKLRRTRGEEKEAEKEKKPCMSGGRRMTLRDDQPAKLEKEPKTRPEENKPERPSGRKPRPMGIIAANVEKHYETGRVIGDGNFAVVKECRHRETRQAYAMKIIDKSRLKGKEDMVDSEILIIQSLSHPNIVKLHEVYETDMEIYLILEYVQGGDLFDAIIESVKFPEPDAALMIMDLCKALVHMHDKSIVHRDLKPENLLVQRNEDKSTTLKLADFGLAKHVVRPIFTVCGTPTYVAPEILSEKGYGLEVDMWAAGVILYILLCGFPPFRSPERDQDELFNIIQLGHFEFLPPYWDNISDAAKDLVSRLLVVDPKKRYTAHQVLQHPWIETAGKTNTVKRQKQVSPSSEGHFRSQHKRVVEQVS

DDR2 = DDR2 (Homo sapiens, UniProt Q16832)
EPHB6 = EPHB6 (Homo sapiens, UniProt O15197)
Chain of EPHB6 (O15197 32-1021): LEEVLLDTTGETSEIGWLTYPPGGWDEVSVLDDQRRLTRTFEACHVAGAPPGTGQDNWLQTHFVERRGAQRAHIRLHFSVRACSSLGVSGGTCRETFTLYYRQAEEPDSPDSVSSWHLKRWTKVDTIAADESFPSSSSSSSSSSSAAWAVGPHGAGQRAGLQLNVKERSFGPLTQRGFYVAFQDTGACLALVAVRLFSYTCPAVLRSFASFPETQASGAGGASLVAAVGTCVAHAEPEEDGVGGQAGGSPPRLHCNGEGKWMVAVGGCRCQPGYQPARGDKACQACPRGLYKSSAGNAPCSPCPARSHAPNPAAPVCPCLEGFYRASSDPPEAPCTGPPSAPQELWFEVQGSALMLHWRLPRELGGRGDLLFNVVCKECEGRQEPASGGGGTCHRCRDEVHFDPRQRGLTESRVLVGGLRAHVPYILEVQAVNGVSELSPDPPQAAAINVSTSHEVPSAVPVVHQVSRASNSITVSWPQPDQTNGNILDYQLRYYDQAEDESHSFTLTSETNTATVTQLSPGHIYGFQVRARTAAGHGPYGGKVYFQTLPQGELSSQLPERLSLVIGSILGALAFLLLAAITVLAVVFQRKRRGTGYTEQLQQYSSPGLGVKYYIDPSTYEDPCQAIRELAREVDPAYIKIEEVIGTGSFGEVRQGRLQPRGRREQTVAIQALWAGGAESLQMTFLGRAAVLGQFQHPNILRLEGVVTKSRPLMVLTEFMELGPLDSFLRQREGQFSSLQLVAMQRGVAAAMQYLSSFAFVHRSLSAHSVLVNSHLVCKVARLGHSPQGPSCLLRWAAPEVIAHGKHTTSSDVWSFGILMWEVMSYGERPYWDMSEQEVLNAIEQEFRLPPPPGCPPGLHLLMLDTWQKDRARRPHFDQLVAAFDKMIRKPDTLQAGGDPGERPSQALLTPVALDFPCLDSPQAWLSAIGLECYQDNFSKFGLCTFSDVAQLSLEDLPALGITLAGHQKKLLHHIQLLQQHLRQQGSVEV

FES = FES (Homo sapiens, UniProt P07332)
FGFR3 (G697C) = FGFR3 (G697C) (Homo sapiens, UniProt P22607, G697C)
GRK4 = GRK4 (Homo sapiens, UniProt P32298)
HPK1 = HPK1 (Homo sapiens, UniProt Q92918)
IRAK1 = IRAK1 (Homo sapiens, UniProt P51617)
KIT (L576P) = KIT (L576P) (Homo sapiens, UniProt P10721, L576P)
LIMK1 = LIMK1 (Homo sapiens, UniProt P53667)
LOK = LOK (Homo sapiens, UniProt O94804)
LTK = target: T1, LTK (Homo sapiens, UniProt P29376)
T1 construct: T7 phage fusion (most assays) or DNA label after HEK293 expression; purchased DiscoveRx (KINOMEscan, LeadHunter Discovery services); host or cells: T7 phage in E. coli (BL21-derived) or HEK293

MET (M1250T) = MET (M1250T) (Homo sapiens, UniProt P08581, M1250T)
Chain of MET (M1250T) (P08581 25-1390 M1250T): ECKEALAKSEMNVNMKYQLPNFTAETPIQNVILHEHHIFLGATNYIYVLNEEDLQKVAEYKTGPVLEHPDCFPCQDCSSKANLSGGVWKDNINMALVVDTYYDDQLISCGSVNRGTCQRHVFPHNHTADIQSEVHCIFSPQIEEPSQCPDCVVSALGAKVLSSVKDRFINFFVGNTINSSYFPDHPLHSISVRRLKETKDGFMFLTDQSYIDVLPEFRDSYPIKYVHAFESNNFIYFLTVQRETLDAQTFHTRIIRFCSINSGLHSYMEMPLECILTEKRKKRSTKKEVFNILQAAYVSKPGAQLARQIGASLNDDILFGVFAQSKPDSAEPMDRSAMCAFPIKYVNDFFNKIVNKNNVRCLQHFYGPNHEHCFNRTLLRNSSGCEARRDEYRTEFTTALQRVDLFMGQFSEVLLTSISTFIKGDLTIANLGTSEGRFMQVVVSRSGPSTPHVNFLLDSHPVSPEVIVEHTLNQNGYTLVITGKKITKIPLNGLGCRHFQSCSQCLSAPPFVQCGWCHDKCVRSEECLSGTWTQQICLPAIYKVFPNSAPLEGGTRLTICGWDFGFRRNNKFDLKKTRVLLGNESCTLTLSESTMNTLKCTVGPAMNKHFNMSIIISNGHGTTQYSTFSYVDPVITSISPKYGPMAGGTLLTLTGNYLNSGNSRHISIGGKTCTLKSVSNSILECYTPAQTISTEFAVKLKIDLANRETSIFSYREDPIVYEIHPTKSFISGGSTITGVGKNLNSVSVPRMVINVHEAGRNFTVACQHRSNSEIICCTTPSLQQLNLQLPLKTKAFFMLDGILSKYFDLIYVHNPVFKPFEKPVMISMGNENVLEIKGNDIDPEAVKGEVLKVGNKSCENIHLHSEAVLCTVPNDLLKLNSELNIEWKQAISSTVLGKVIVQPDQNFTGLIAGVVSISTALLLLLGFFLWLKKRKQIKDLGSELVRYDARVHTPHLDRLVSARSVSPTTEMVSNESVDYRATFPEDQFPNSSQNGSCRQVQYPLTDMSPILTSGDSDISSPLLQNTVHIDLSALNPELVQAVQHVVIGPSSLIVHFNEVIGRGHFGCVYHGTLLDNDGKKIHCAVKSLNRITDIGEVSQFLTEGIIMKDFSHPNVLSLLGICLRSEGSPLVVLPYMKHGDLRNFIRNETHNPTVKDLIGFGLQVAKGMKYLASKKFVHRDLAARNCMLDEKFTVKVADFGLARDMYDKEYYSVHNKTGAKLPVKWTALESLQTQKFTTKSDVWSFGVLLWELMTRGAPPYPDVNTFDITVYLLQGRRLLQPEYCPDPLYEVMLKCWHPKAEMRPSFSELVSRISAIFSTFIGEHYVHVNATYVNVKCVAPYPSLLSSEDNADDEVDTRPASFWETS

MINK = MINK (Homo sapiens, UniProt Q8N4C8)
p38-alpha = p38-alpha (Homo sapiens, UniProt Q16539)
Chain of p38-alpha (Q16539 whole entry): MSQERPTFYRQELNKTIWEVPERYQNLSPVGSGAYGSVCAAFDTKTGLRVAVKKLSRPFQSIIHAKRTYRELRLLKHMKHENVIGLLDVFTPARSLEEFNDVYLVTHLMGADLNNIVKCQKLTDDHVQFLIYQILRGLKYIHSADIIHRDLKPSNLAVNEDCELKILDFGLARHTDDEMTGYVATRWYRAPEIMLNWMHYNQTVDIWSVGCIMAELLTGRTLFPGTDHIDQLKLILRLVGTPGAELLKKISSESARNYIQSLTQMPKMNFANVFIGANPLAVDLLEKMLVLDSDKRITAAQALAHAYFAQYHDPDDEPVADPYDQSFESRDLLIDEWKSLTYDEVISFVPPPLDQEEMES

p38-delta = p38-delta (Homo sapiens, UniProt O15264)
p38-gamma = p38-gamma (Homo sapiens, UniProt P53778)
PAK1 = PAK1 (Homo sapiens, UniProt Q13153)
PCTK2 = PCTK2 (Homo sapiens, UniProt Q00537)
PFCDPK1 P. falciparum = PFCDPK1 P. falciparum (Plasmodium falciparum, UniProt P62344)
PFTK1 = PFTK1 (Homo sapiens, UniProt O94921)
PKAC-alpha = PKAC-alpha (Homo sapiens, UniProt P17612)
PRKCE = PRKCE (Homo sapiens, UniProt Q02156)
PRKCQ = PRKCQ (Homo sapiens, UniProt Q04759)
Chain of PRKCQ (Q04759 whole entry): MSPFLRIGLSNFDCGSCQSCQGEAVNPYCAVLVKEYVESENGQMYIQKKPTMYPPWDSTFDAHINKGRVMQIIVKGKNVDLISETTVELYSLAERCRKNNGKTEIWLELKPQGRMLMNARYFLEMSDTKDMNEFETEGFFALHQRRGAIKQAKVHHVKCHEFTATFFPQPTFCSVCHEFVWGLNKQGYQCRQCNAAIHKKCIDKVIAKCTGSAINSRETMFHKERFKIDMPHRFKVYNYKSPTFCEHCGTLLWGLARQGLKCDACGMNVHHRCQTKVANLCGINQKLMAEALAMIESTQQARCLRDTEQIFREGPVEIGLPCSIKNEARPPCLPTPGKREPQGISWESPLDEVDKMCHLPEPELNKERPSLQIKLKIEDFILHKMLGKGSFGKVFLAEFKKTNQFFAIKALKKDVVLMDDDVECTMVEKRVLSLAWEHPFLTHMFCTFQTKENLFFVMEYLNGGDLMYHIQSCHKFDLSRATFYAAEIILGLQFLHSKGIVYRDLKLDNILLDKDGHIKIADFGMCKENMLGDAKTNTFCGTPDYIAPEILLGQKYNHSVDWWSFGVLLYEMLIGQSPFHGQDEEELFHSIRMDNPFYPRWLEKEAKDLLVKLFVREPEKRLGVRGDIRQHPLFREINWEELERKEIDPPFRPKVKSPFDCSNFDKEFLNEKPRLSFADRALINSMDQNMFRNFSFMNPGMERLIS

[4] = target: RSK2 Kin.Dom.1-N-terminal (Homo sapiens, UniProt P51812)
SNRK = SNRK (Homo sapiens, UniProt Q9NRH2)
TESK1 = TESK1 (Homo sapiens, UniProt Q15569)
TNNI3K = TNNI3K (Homo sapiens, UniProt Q59H18)
TRPM6 = TRPM6 (Homo sapiens, UniProt Q9BX84)

**Q.** Which results are given for `Nc1ncc(-c2nc3ccccc3o2)c(-c2ccncc2)n1` [Comparative Compound 324, 5-(1,3-benzoxazol-2-yl)-4-(pyridine-4-yl)pyrimidin-2-amine]?
**A.** remaining binding at 10 µM [1]: 66%; remaining binding at 10 µM [2]: 31%; remaining binding at 10 µM [3]: 100%; remaining binding at 10 µM (ABL1 non-phosphorylated): 81%; remaining binding at 10 µM (AKT1): 96%; remaining binding at 10 µM (AKT2): 100%; remaining binding at 10 µM (AKT3): 100%; remaining binding at 10 µM (BMPR1B): 80%; remaining binding at 10 µM (CAMK1G): 89%; remaining binding at 10 µM (CDC2L5): 93%; remaining binding at 10 µM (CLK4): 83%; remaining binding at 10 µM (CSK): 100%; remaining binding at 10 µM (DCAMKL3): 100%; remaining binding at 10 µM (DDR2): 100%; remaining binding at 10 µM (EPHB6): 65%; remaining binding at 10 µM (FES): 78%; remaining binding at 10 µM (FGFR3 (G697C)): 76%; remaining binding at 10 µM (GRK4): 100%; remaining binding at 10 µM (HPK1): 86%; remaining binding at 10 µM (IRAK1): 87%; remaining binding at 10 µM (KIT (L576P)): 57%; remaining binding at 10 µM (LIMK1): 100%; remaining binding at 10 µM (LOK): 72%; remaining binding at 10 µM (LTK): 74%; remaining binding at 10 µM (MET (M1250T)): 97%; remaining binding at 10 µM (MINK): 56%; remaining binding at 10 µM (p38-alpha): 33%; remaining binding at 10 µM (p38-delta): 90%; remaining binding at 10 µM (p38-gamma): 61%; remaining binding at 10 µM (PAK1): 75%; remaining binding at 10 µM (PCTK2): 99%; remaining binding at 10 µM (PFCDPK1 P. falciparum): 78%; remaining binding at 10 µM (PFTK1): 96%; remaining binding at 10 µM (PKAC-alpha): 91%; remaining binding at 10 µM (PRKCE): 95%; remaining binding at 10 µM (PRKCQ): 100%; remaining binding at 10 µM [4]: 80%; remaining binding at 10 µM (SNRK): 65%; remaining binding at 10 µM (TESK1): 88%; remaining binding at 10 µM (TNNI3K): 100%; remaining binding at 10 µM (TRPM6): 53%

**Q.** For `CNc1c(C(N)=O)c2ccccn2c1C(=O)c1ccc(F)cc1` [Compound A, 2-methyl-amino-3-[(4-fluorophenyl)carbonyl]indolizine-1-carboxamide], which remaining binding at 10 µM [1] is on record?
**A.** Its remaining binding at 10 µM is 14%.

**Q.** What about the remaining binding at 10 µM [2] of the same molecule?
**A.** Its remaining binding at 10 µM is 11%.

**Q.** And the remaining binding at 10 µM [3]?
**A.** Its remaining binding at 10 µM is 37%.

**Q.** What about the remaining binding at 10 µM (ABL1 non-phosphorylated) of the same molecule?
**A.** Its remaining binding at 10 µM is 42%.

**Q.** And the remaining binding at 10 µM (AKT1)?
**A.** Its remaining binding at 10 µM is 91%.

**Q.** And the remaining binding at 10 µM (AKT2)?
**A.** The remaining binding at 10 µM was 98%.

**Q.** What about the remaining binding at 10 µM (AKT3) of the same molecule?
**A.** Its remaining binding at 10 µM is 100%.

**Q.** And the remaining binding at 10 µM (BMPR1B)?
**A.** The remaining binding at 10 µM was 81%.

**Q.** And the remaining binding at 10 µM (CAMK1G)?
**A.** The remaining binding at 10 µM was 65%.

**Q.** What about the remaining binding at 10 µM (CDC2L5) of the same molecule?
**A.** The remaining binding at 10 µM was 89%.

**Q.** And the remaining binding at 10 µM (CLK4)?
**A.** Its remaining binding at 10 µM is 76%.

**Q.** What about the remaining binding at 10 µM (CSK) of the same molecule?
**A.** The remaining binding at 10 µM was 91%.

**Q.** And the remaining binding at 10 µM (DCAMKL3)?
**A.** The remaining binding at 10 µM was 100%.

**Q.** And the remaining binding at 10 µM (DDR2)?
**A.** The remaining binding at 10 µM was 65%.

**Q.** What about the remaining binding at 10 µM (EPHB6) of the same molecule?
**A.** The remaining binding at 10 µM was 64%.

**Q.** And the remaining binding at 10 µM (FES)?
**A.** The remaining binding at 10 µM was 75%.

**Q.** And the remaining binding at 10 µM (FGFR3 (G697C))?
**A.** The remaining binding at 10 µM was 71%.

**Q.** What about the remaining binding at 10 µM (GRK4) of the same molecule?
**A.** Its remaining binding at 10 µM is 97%.

**Q.** And the remaining binding at 10 µM (HPK1)?
**A.** The remaining binding at 10 µM was 82%.

**Q.** What about the remaining binding at 10 µM (IRAK1) of the same molecule?
**A.** Its remaining binding at 10 µM is 93%.

**Q.** And the remaining binding at 10 µM (KIT (L576P))?
**A.** Its remaining binding at 10 µM is 29%.

**Q.** And the remaining binding at 10 µM (LIMK1)?
**A.** Its remaining binding at 10 µM is 100%.

**Q.** And the remaining binding at 10 µM (LOK)?
**A.** The remaining binding at 10 µM was 61%.

**Q.** And the remaining binding at 10 µM (LTK)?
**A.** Its remaining binding at 10 µM is 85%.

**Q.** And the remaining binding at 10 µM (MET (M1250T))?
**A.** The remaining binding at 10 µM was 83%.

**Q.** And the remaining binding at 10 µM (MINK)?
**A.** The remaining binding at 10 µM was 57%.

**Q.** What about the remaining binding at 10 µM (p38-alpha) of the same molecule?
**A.** The remaining binding at 10 µM was 6%.

**Q.** And the remaining binding at 10 µM (p38-delta)?
**A.** The remaining binding at 10 µM was 85%.

**Q.** And the remaining binding at 10 µM (p38-gamma)?
**A.** The remaining binding at 10 µM was 79%.

**Q.** And the remaining binding at 10 µM (PAK1)?
**A.** The remaining binding at 10 µM was 71%.

**Q.** And the remaining binding at 10 µM (PCTK2)?
**A.** Its remaining binding at 10 µM is 83%.

**Q.** And the remaining binding at 10 µM (PFCDPK1 P. falciparum)?
**A.** Its remaining binding at 10 µM is 0.9%.

**Q.** And the remaining binding at 10 µM (PFTK1)?
**A.** The remaining binding at 10 µM was 77%.

**Q.** What about the remaining binding at 10 µM (PKAC-alpha) of the same molecule?
**A.** The remaining binding at 10 µM was 42%.

**Q.** And the remaining binding at 10 µM (PRKCE)?
**A.** The remaining binding at 10 µM was 96%.

**Q.** What about the remaining binding at 10 µM (PRKCQ) of the same molecule?
**A.** The remaining binding at 10 µM was 88%.

**Q.** And the remaining binding at 10 µM [4]?
**A.** Its remaining binding at 10 µM is 59%.

**Q.** What about the remaining binding at 10 µM (SNRK) of the same molecule?
**A.** Its remaining binding at 10 µM is 66%.

**Q.** What about the remaining binding at 10 µM (TESK1) of the same molecule?
**A.** The remaining binding at 10 µM was 90%.

**Q.** And the remaining binding at 10 µM (TNNI3K)?
**A.** Its remaining binding at 10 µM is 78%.

**Q.** What about the remaining binding at 10 µM (TRPM6) of the same molecule?
**A.** The remaining binding at 10 µM was 69%.
